Holding throughout (assay type): biochemical
In assay [1] the target is T1, TmPep1050 (Thermotoga maritima, UniProt Q9X0E0).
T1 construct: gene TM_1050; recombinant TmPep1050 (TM1050 ORF)
T1 sequence (Q9X0E0 1-331): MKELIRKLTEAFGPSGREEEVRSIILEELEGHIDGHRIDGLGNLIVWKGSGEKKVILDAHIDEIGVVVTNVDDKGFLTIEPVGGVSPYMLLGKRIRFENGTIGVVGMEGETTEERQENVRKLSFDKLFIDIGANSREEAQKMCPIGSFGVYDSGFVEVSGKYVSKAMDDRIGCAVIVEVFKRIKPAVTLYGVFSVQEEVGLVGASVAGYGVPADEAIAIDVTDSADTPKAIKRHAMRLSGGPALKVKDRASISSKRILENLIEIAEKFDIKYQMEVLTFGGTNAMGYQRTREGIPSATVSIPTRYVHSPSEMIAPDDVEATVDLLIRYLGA
Nature of the assay: specific activity of pNA hydrolysis at […] substrate.

In assay [2] the target is T2, CelM (Acetivibrio thermocellus, UniProt P55742).
T2 construct: recombinant CelM bearing a C-terminal hexahistidine tag
T2 sequence (P55742 1-330): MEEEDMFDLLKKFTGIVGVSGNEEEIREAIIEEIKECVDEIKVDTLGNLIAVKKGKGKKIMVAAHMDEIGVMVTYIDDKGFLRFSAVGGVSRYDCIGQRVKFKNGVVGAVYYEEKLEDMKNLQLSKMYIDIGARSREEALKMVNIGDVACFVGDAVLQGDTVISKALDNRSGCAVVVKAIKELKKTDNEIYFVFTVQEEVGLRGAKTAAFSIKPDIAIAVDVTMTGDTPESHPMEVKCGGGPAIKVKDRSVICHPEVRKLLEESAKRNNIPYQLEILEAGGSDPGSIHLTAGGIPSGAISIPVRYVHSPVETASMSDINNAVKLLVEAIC
Nature of the assay: specific activity of pNA hydrolysis at […] substrate.

In assay [3] the target is T1, TmPep1050. The assay is described as follows: inhibition of leucine aminopeptidase activity of purified enzyme, apparent Ki.
Assay [4] addresses T2, CelM. Described as above.

Molecules are shown by their SMILES.

Turning to `CC(C)[C@H](N)C(=O)Nc1ccc([N+](=O)[O-])cc1` [L-Val-pNA], the TmPep1050 sp act on TmPep1050 [1] turned out to be 14.3±1.8 µmol min^−1 µmol^−1. The CelM sp act on CelM [2] is reported as 8.4±0.016 µmol min^−1 µmol^−1.

With `CC(C)C[C@H](NC(=O)[C@@H](O)[C@H](N)Cc1ccccc1)C(=O)O` [bestatin], the Ki on TmPep1050 [3] was 432 ± 72 nM; on CelM [4], 292 ± 66 nM.

(Values after PMC3511314, “Functional Characterization of Two M42 Aminopeptidases Erroneously Annotated as Cellulases” (PLoS ONE, 2012).)
